The values below come from patent US20130337463A1, “Cell-Based Models of Neurodegenerative Disease” (The Trustees of the University of Pennsylvania, priority 2010, published 2013).

The test system of data set [1] is primary hippocampal neurons derived from WT C57BL6 mice. In words: p-α-syn aggregate formation in primary hippocampal neurons after pff addition. In kind it is cell-based, mouse. The settings on record: for p-α-syn aggregate formation: pffs added to DIV5 neurons, 2 weeks. Here is the method: Primary neuronal cultures were prepared from E16-E18 C57BL/6 mouse brains (Charles River, Wilmington, Mass.) and α-syn −/− mice (Abeliovich et al., 2000, Neuron 25:239-252). All procedures were performed according to the NIH Guide for the Care and Use of Experimental Animals and were approved by the University of Pennsylvania Institutional Animal Care and Use Committee. Hippocampi were dissected, rinsed with Hank's Balanced Salt Solution (HBSS) and digested in HBSS containing papain (20 U/mL; Worthington Biochemical Corporation; Lakewood, N.J.) containing DNase (20 μg/mL; Worthington Biochemical Corporation; Lakewood, N.J.). Following rinses in plating media (10% fetal bovine serum, 1% penicillin/streptomycin, Glutamax, B27, Neurobasal media; Invitrogen, Carlsbad, Calif.) and HBSS, dissociated hippocampal neurons were plated in plating media onto poly-D-lysine (0.1 mg/mL, diluted in borate buffer, 0.1M, pH8.4) coated coverslips (Carolina Biological Supply, Burlington, N.C.) in 24 well trays at 20,000-40,000 cells/cm^2 or poly-D-lysine coated 60 mm dishes at 70-100,000 cells/cm2. The media was then changed to neuronal media (1% penicillin/streptomycin, Glutamax, B27, Neurobasal media). Most experiments were performed at 19 days in vitro (DIV).
Recombinant full-length and truncated α-syn with and without a C-terminal myc-tag, were purified as previously described (Giasson et al., 2001, J. Biol. Chem. 276:2380-2386). α-syn pffs were generated by incubating purified α-syn (5 mg/mL in PBS) at 37° C. with constant agitation for 5 days, followed by aliquoting and storage at […]. The presence of amyloid was confirmed using Thioflavin T fluorometry. Fibrils of α-syn synthetic NAC peptide (amino acids 61-95) (Biotechnology Resource Center, Yale University) were generated as described (Giasson et al., 2001, J. Biol. Chem. 276:2380-2386). Pffs were diluted in PBS at 0.1 mg/mL, sonicated several times, and diluted in neuronal media. For a 24-well tray, 1 μg/mL of pffs were added, and 5 μg/mL of α-syn pffs were added to a […]. For WGA experiments, α-syn pffs were incubated with 1 μg/mL or 5 μg/mL WGA or preincubated for 1 hr (h) with 0.1 M GlcNAC followed by incubation with media containing α-syn pffs, GlcNAC, and WGA.
Neurons were fixed with 4% paraformaldehyde in PBS containing 4% sucrose followed by permeabilization with 0.1% Triton X-100. To determine if the pathologic α-syn aggregates were detergent-insoluble, neurons were fixed with 4% paraformaldehyde, 4% sucrose and 1% Tx-100 (Luk et al., 2009, Proc. Natl. Acad. Sci. USA 106:20051-20056). Following fixation, neurons were blocked with 3% bovine serum albumin (BSA) in PBS, and incubated in primary antibodies (Table 6) followed by Alex fluor 594 or 488-conjugated secondary antibodies (anti-mouse, anti-rabbit, anti-IgG1 and anti-IgG2a; Invitrogen; Carlsbad, Calif.) diluted in blocking buffer. To assess cell viability, cells were incubated with ethidium homodimer (2 μM, Sigma Aldrich, St. Louis, Mo.) and Hoechst 33342 (1:1000, Invitrogen, Carlsbad, Calif.) and the percent overlap between both dyes was determined using Metamorph software (Molecular Devices, Sunnyvale, Calif.).

Data set [2] has as its system QBI-WT-Syn cells (QBI-293 cells stably expressing WT α-Syn). In words: α-Syn inclusion formation after Bioporter transduction of QBI-WT-Syn cells. The settings on record: immunostaining 48 h after transduction. It counts as cell-based, human. Here is the method: QBI cells were plated in 35-mm tissue culture plates and allowed to reach 80-90% confluence for transduction experiments. Cells were transferred to serum-free media 1 h before transduction. For each plate, 10 μL of cationic-liposomal protein transduction reagent (Bioporter; Sigma) was added to a 1.5-mL Microfuge tube and evaporated as per the manufacturer's guidelines. The resulting reagent dry-film was then directly resuspended with 80 μL of PBS containing α-Syn fibrils (100 μg/mL) fragmented by brief sonication with a hand-held probe. Protein:reagent complexes were allowed to form at room temperature for 10 min, after which the mixture was further diluted in OptiMEM (Invitrogen) and added to cells. Cells were then further incubated for 4 h, washed twice with Versene and 0.5% trypsin/EDTA to remove extracellular α-Syn fibrils, and transferred onto 6-well tissue culture plates or poly(d-lysine)-coated glass coverslips. […]
Cells on coverslips were washed with PBS and fixed with 4% paraformaldehyde. […] Epifluorescence images were obtained by using a Nikon Eclipse 3000 inverted microscope equipped with a CoolSNAP HQ camera (Roper Scientific) and analyzed by using Metamorph 6.0 (Molecular Devices). […] Confocal laser scanning microscopic images were obtained by using a Zeiss LSM510 microscope and analyzed by using Volocity software (Improvision).

Data set [3] has as its system T40/P301L-transfected cells. In words: Fibril-alone transduction without BioPORTER reagent (spontaneous PFF uptake). It counts as cell-based, human. The method, then:
For fibril-alone transduction without BioPORTER reagent, cells were placed on starvation medium right before the addition of fibrils. Fibrils were processed as described above and the same amount was used as in reagent-mediated transduction. Cells were trypsinized and replated either 4 hr or 30 hr after the initial addition of fibrils. For experiments using WGA, different doses of WGA were added to starvation medium together with PFFs. To inhibit endocytosis of WGA, 0.1 M GlcNAc was incubated with medium containing PFFs and 10 µg/ml WGA for 1 hr at 37° C. before being added to cells which were pre-incubated in 0.1M GlcNAc-containing medium for 1 hr. Cells were placed on WGA-free starvation medium 5-6 hr after fibril addition and fixed after overnight incubation to minimize possible toxicity resulted from WGA treatment.
Immunocytochemistry was performed 48 hr after the initial addition of fibrils unless indicated otherwise. Cells were fixed in 4% paraformaldehyde (PFA) for 10 min and permeabilized with 0.1% Triton-X100 for 15 min, or fixed with 4% PFA containing 1% Triton-X100 for 15 min to remove soluble proteins. For visualization of microtubules, cells were fixed with 0.3% glutaraldehyde in PEM buffer (80 mM PIPES, pH6.8, 5 mM EGTA, 1 mM MgCl2) for 10 min, extracted with 1% Triton-X100 for 15 min before being quenched with 10 mg/ml sodium borohydride for 7 min followed by 0.1 M glycine for 20 min. […]
For quantifying the percentage of cells developing tau aggregates with different combinations of endogenous tau and PFFs, 10-20 random-field images were taken at 40× magnification for each combination and at least two independent experiments were performed. For quantification of MT-bundling and PFF-induced tau aggregation in the absence of bioPORTER reagent under various conditions (i.e. different temperatures, with or without WGA/GlcNAc), 10 random-field images were taken at 20× magnification for each condition in each experiment and 3-4 independent experiments were performed. […]

A further data set concerns AMPAR. Particulars: published (Dev et al., 1996); cited from earlier work.

For the compound “α-syn-NAC: fibrils of α-syn synthetic NAC peptide (amino acids 61-95)”, the p-α-syn aggregate formation result in data set [1] is “resulted in endogenous mouse α-syn fibrillar LB-like aggregates”.
For the compound “β-galactosidase: unrelated soluble protein”, in data set [2], the inclusion formation entry is “did not result in inclusion formation”.
Consider wheat germ agglutinin [WGA], for which, in data set [3] (co-incubated with myc-K18/P301L PFFs, 0, 5, 10, 15 µg/ml WGA), the “effect on prevalence of tau aggregate-bearing cells” value was “increased the prevalence of tau aggregate-bearing cells”. For the same compound, in data set [3] (up to 15 µg/ml of WGA), the “accumulation of insoluble tau in the absence of PFFs” value was “nor does it induce accumulation of insoluble tau in the absence of PFFs”. Besides, in data set [1] (co-incubation with α-syn-hWT pffs, 1 or 5 μg/mL WGA, 4 days), the “effect on extent of p-α-syn pathology” value was “dose-dependently increased the extent of p-α-syn pathology”.
With `CC(=O)N[C@H]1C(O)O[C@H](CO)[C@@H](O)[C@@H]1O` (stereo partly shown) [GlcNAc, N-acetyl glucosamine], the “effect on WGA-enhanced PFF uptake and tau aggregation” value in data set [3] (0.1 M GlcNAc added to the medium) is reported as “significantly attenuated”. Besides, in data set [1] (0.1 M GlcNAc), the “effect on WGA-enhanced aggregate formation” value is on record as “reduced the effects of WGA on α-syn pff-induced aggregate formation”.
With `NS(=O)(=O)c1cccc2c1c([N+](=O)[O-])cc1nc(O)c(O)nc12` [NBQX], in the data set on AMPAR, the half-maximal inhibitory concentration (IC50) is 47 nM.
In the case of “α-syn-58-140: human α-syn pffs composed of residues 58-140”, the p-α-syn aggregate formation result in data set [1] is listed as “seeded formation of endogenous mouse α-syn aggregates”.
With “α-syn-1-89: human α-syn pffs composed of residues 1-89”, the p-α-syn aggregate formation result in data set [1] is “robust accumulation of endogenous p-α-syn aggregates”.

Usually IC50 stands for the concentration that gives 50% inhibition.
